In publication PMC5716539, “The acute glucose lowering effect of specific GPR120 activation in mice is mainly driven by glucagon-like peptide 1” (PLoS ONE, 2017):

Columns and labels:
[1] = tested on: lean mice; experiment: Plasma total GLP-1 levels after oral administration in mice; format: in vivo, mouse; conditions: 30 min after AZ13581837 or 60 min after Metabolex-36, oral, vs respective control group
Description: In separate experiments, mice were pretreated with the GLP-1 receptor antagonist exendin 9–39 (30 nmol/kg, Bachem; intraperitoneally) alone or in combination with the GPR120 agonists, 15 min prior to the IVGTT. Insulin and glucose were measured 0, 1, 5, 10, 20 and 40 min after intravenous (iv) glucose administration. In separate groups of mice total GLP-1 levels were measured 60 min after oral administration of Metabolex-36 or 30 min after AZ13581837 and in corresponding vehicle (0.5% HPMC, 0.1% Tween-80) dosed mice. Blood samples were collected in EDTA coated tubes, centrifuged at 10000xg for 4 min, and plasma was separated and stored frozen until analyzed.
Glucose was measured using a glucometer (AccuCheck, Bayer). Circulating hormones were measured using specific ELISA kits; insulin (ultra-sensitive mouse insulin, Crystal Chemistry), and total and active GLP-1 (Millipore).

[2] = target: T1, mouse GPR120 (Mus musculus, UniProt Q7TMA4); experiment: cAMP production in CHO cells overexpressing mouse GPR120; format: cell-based; conditions: data not shown
T1 construct: expressed in transfected cells
T1 sequence (Q7TMA4 1-361): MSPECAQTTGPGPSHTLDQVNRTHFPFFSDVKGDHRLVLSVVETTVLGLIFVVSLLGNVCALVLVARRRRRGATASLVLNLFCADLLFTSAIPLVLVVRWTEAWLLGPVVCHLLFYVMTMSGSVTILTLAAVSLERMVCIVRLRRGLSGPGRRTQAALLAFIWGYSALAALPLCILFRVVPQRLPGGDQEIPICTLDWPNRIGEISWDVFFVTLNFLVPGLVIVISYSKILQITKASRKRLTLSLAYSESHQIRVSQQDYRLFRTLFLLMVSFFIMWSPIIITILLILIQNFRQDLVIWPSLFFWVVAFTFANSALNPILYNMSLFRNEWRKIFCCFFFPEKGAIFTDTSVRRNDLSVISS

[3] = target: T2, human GPR120 (Homo sapiens, UniProt Q5NUL3); experiment: β-arrestin recruitment (Tango) assay in U2OS-hGPR120 cells; format: cell-based
T2 construct: expressed in transfected cells
T2 sequence (Q5NUL3 1-361): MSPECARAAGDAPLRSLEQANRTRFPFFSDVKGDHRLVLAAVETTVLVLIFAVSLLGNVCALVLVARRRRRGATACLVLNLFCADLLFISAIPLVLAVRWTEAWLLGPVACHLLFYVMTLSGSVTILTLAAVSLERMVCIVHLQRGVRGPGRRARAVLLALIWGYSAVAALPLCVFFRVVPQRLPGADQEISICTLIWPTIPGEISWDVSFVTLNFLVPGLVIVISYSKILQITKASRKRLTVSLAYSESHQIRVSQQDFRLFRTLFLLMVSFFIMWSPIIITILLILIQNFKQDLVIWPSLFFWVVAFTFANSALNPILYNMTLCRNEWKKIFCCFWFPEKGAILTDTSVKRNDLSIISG
Description: U2OS-hGPR120 cells cultured in Freestyle medium (Invitrogen) were incubated for 5 hours with GPR120 agonists in 384-well Cell BIND plates (Corning) at 37°C, 95% humidity and 5% CO2. LiveBLAzer™ FRET B/G working solution (Invitrogen) was added and after 2 hours at room temperature fluorescence intensity (λex = 405 nm, λem = 530 and 460 nm) was detected using a Pherastar FS (BMG Labtech) according to the manufacturers protocol.

[4] = tested on: STC-1 cells; experiment: GLP-1 secretion from STC-1 cells; format: cell-based, mouse; conditions: 2 hours, active GLP-1, vs 0.1% DMSO
Description: STC-1 cells were cultured in DMEM (Invitrogen) supplemented with 10% horse serum (ThermoFisher Scientific), 2.5% FBS (Hyclone) and 1% Penicillin/Streptomycin in 96-well poly-D-Lysine coated plates to 80–90% confluence at 37°C, 5% CO2. Cells were washed and pre-incubated in assay buffer (HBSS with Ca^2+ and Mg^2+ containing 20 mM HEPES, 0.1% BSA (Sigma) and 20 nM sitagliptin (dipeptidyl peptidase 4 (DPP-4) inhibitor), for 30 min in 37°C. GPR120 agonists were added and cells were incubated for 2 hours in 37°C. DMSO (0.1%) was used as control. GLP-1 secretion was measured in the supernatants (GLP-1 active, Millipore) by fluorescence detection. Concentration of active GLP-1 was derived by interpolation from a GLP-1 standard curve.

[5] = target: T2, human GPR120; experiment: cAMP assay in CHO-hGPR120 cells; format: cell-based; conditions: cAMP production in CHO-hGPR120 cells; mean ± SEM
Description: CHO-hGPR120 or CHO cells in HBSS (Invitrogen), 20 mM HEPES (Invitrogen), pH 7.4, 0.01% BSA, 1.5 mM 3-isobutyl-1-methylxanthine (Sigma) and d2-labeled cAMP (CisBio) were incubated with GPR120 agonists (1% DMSO) for 45 min at room temperature in white small-volume 384-well plates (Greiner). The reaction was terminated by addition of conjugate and lysis buffer (CisBio) supplemented with anti-cAMP Cryptate (CisBio).

[6] = tested on: lean male mice; experiment: Oral glucose tolerance test (OGTT) in lean male mice; format: in vivo, mouse; conditions: for Glucose excursions following oral glucose administration: oral dosing, different doses, glucose 2 g/kg, vs vehicle; for Dose at which significantly improved glucose tolerance was observed: oral, OGTT lean male mice; for Calculated unbound effective concentration, Ce50: unbound concentration giving 50% decrease in blood glucose over time vs vehicle, turnover model
Description: OGTT tests were performed in lean male mice (body weight 27-32g), randomized on body weight, fasted for 16 hours. An oral glucose load (2 g/kg) was administered 30 min (AZ13581837, 7 and 18 mg/kg) or 60 min (Metabolex-36, 10, 30 and 100 mg/kg) after oral dosing with the GPR120 agonists and blood glucose was measured at -30, 0, 10, 25, 40, 60 and 90 min post glucose administration. The specificity of Metabolex-36 was examined in male GPR120 null mice. The administration time for the GPR120 agonists was optimized depending on the pharmacokinetic profile of each compound, in order to maximize the plasma exposure of the compounds during the experiments.
For OGTT a turnover model with a log-linear drug function was used to model the glucose lowering effect determined as the effective concentration resulting in a 50% decrease in blood glucose over time (Ce50) compared to vehicle. All analyses were performed using Phoenix WinNonlin 6.4 (Certara, Princeton, NJ, USA). The area under the glucose excursion curve was calculated and used for statistical evaluation.

[7] = target: T2, human GPR120; experiment: Calcium mobilization assay in CHO-hGPR120 cells; format: cell-based; conditions: for Calcium mobilization after Gαq inhibition: CHO-hGPR120 cells pre-treated with 1 μM QIC; for EC50: CHO-hGPR120 cells, mean ± SEM
Description: CHO-hGPR120 and CHO cells were cultured in DMEM/F-12 (Invitrogen) with 10% FBS (Sigma) and HEK293-mGPR40 in DMEM (Invitrogen) supplemented with 10% FBS in 384-well poly-D-Lysin coated microplates (Greiner) at 37°C, 95% humidity and 5% CO2. After 19 hours cell media was replaced with Calcium4 dye (Molecular Devices) in HBSS (Invitrogen), 20 mM HEPES (Invitrogen), pH 7.4 and 1.25 mM Probenecid (Sigma). After 1 hour at room temperature agonists were added and calcium mobilization was detected as change in fluorescence (λex = 488 and λem = 540 nm) using a FLIPR^TETRA (Molecular Devices).

Compound	Total GLP-1 levels [1]	Activation or inhibition of cAMP production in CHO cells overexpressing mouse GPR120 [2]	EC50 [3]	GLP-1 secretion from STC-1 cells [4]	EC50 [5]	Glucose excursions following oral glucose administration [6]	Dose at which significantly improved glucose tolerance was observed [6]	Calculated unbound effective concentration, Ce50 [6]	Calcium mobilization after Gαq inhibition [7]	EC50 [7]	EC50 ([3]; read-out: β-arrestin EC50, β-arrestin recruitment in U2OS-hGPR120 cells, mean ± SEM)
C#Cc1cc(Oc2cccnc2)cc(N2Cc3ccccc3S2(=O)=O)c1 [AZ13581837, 2-(3-ethynyl-5-(3-pyridyloxy)phenyl)-3H-1,2-benzothiazole 1,1-dioxide]	significant increase	unable to detect	5.2 ± 0.4 nM	significantly increased GLP-1 secretion	60 ± 7 nM	concentration dependent reduction	18 mg/kg	0.02 µM	completely abolished	120 ± 20 nM	–
3-(3,5-difluoro-4-((3-methyl-1-phenyl-1H-pyrazol-5-yl)methoxy)phenyl)-2-methylpropanoic acid [Metabolex-36]	significant increase	unable to detect	–	significantly increased GLP-1 secretion	6700 ± 1000 nM	concentration dependent reduction	30 mg/kg	0.6 µM	completely abolished	1800 ± 190 nM	1400 ± 700 nM
